The text below walks through data of ChEMBL document CHEMBL4371048, “Ganocapenoids A-D: Four new aromatic meroterpenoids from Ganoderma capense” (Bioorg Med Chem Lett, 2019).

One data set concerns the target Acetylcholinesterase (Homo sapiens, UniProt P22303). As to the kind of experiment: Inhibition of AchE (unknown origin) using acetylthiocholine iodide as substrate preincubated for 20 mins followed by substrate addition and measured every 20 secs for 20 times by Ellman's assay. On the technique in general: In Ellman's method for cholinesterases, released thiocholine reacts with DTNB.

In the next data set the test system is PC-12. As to the kind of experiment: Neurite-outgrowth promoting activity in NGF-differentiated rat PC12 cells assessed as cell differentiation at 10 uM after 72 hrs by phase contrast microscopic method (reference value: 4.72 +/- 1.18%). The class given is functional, cell-based.
Data set [1] relates to HepG2. Nature of the data set: Increase in LDLR expression in human HepG2 cells at 20 to 40 uM after 24 hrs by Western blot analysis. The class given is functional, cell-based. (A western blot detects proteins with antibodies after separation by electrophoresis.)
The test system of data set [2] is HepG2. Nature of the data set: Increase in PPARgamma expression in human HepG2 cells at 20 to 40 uM after 24 hrs by Western blot analysis. It is filed as functional, cell-based.
The subject of data set [3] is HepG2. Nature of the data set: Decrease in HMGCR mRNA level in human HepG2 cells at 20 to 40 uM after 24 hrs by qPCR analysis. The class given is functional, cell-based. Background: Real-time PCR tracks product formation cycle by cycle.
Data set [4] concerns HepG2. As to the kind of experiment: Cytotoxicity against human HepG2 cells assessed as effect on cell viability at 10 to 160 uM after 48 hrs by MTT assay. The class given is cell-based. The settings on record: hepg2, 48 h.
Data set [5] concerns HepG2. As to the kind of experiment: Increase in ABCG1 expression in human HepG2 cells at 20 to 40 uM after 24 hrs by Western blot analysis. It is filed as functional, cell-based.
Data set [6] deals with HepG2. As to the kind of experiment: Decrease in SREBP2 mRNA level in human HepG2 cells at 20 to 40 uM after 24 hrs by qPCR analysis. The class given is functional, cell-based.
The test system of data set [7] is HepG2. As to the kind of experiment: Increase in ABCG1 mRNA level in human HepG2 cells at 20 to 40 uM after 24 hrs by qPCR analysis. The class given is functional, cell-based.
Data set [8] deals with HepG2. Nature of the data set: Decrease in HMGCR expression in human HepG2 cells at 20 to 40 uM after 24 hrs by Western blot analysis. It is filed as functional, cell-based.
Data set [9] relates to HepG2. Nature of the data set: Increase in PPARgamma mRNA level in human HepG2 cells at 20 to 40 uM after 24 hrs by qPCR analysis. It is filed as functional, cell-based.
The subject of data set [10] is HepG2. Nature of the data set: Increase in LXRalpha mRNA level in human HepG2 cells at 20 to 40 uM after 24 hrs by qPCR analysis. The class given is functional, cell-based.
Data set [11] has as its system HepG2. As to the kind of experiment: Reduction in lipid accumulation in human HepG2 cells after 24 hrs by Oil-red O staining based microscopic analysis. The class given is functional, cell-based.

Broadly, the IC50 is the point on the concentration scale where inhibition reaches its midpoint. Read a high IC50 as weaker potency.

Active and inactive are the calls of the source. No cut-off for these calls is given here.

Sequence of Acetylcholinesterase (P22303 whole entry): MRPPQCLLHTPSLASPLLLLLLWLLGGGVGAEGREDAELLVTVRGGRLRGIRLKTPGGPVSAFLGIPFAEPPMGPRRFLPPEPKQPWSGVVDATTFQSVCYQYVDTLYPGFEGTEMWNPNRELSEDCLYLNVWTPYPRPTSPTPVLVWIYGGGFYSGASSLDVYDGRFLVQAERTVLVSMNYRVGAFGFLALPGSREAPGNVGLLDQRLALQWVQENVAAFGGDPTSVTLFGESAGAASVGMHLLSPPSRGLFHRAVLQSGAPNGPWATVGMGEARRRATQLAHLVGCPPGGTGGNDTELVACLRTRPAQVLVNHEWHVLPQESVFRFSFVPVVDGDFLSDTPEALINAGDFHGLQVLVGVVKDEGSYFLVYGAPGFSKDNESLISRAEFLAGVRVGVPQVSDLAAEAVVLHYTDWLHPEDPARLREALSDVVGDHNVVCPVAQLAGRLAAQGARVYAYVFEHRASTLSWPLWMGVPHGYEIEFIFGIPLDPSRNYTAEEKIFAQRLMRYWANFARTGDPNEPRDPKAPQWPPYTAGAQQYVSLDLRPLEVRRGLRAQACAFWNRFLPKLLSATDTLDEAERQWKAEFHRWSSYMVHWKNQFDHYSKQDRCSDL

`C/C(=C/CC[C@H](CO)c1cc2cc(O)c(O)cc2o1)CO`: the IC50 at Acetylcholinesterase was determined as 28.6 µM. Further, in the data set on PC-12, the Activity stood at 7.11%.
With `C/C1=C\CCC2=CC(c3cc(O)ccc3O)(OC/C(CO)=C/CC1)OC2=O` (stereo not drawn), the outcome with HepG2 [1], in the data set on HepG2 [2], in the data set with HepG2 [3], in the data set with HepG2 [5], in the data set on HepG2 [6] and in the data set on HepG2 [7] was Active. Moreover, the result in the data set on HepG2 [8], in the data set on HepG2 [9] and in the data set with HepG2 [10] was Active. Besides, the values for the Activity entry in the data set on HepG2 [4] and with HepG2 [11] were “Non-Toxic” and “Dose-dependent effect”, respectively.
Take `COC(=O)/C(=C\C(=O)c1cc(O)ccc1O)CC/C=C(\C)CCC=C(CO)CO`: the Activity in the data set on PC-12 came to 5.32%.
As for `C/C(=C/CCC1=C[C@@H](c2cc(O)ccc2O)OC1=O)CO`, in the data set with PC-12, the Activity is 12.31%.
In the case of `O=C(O)CC1(CC(=O)c2cc(O)ccc2O)C=C(CO)CCC1` (stereo not drawn), the IC50 on Acetylcholinesterase is 26 µM. Besides, in the data set on PC-12, the Activity is reported as 5.97%.
Consider `C/C(=C\CCC1=C[C@H](c2cc(O)ccc2O)OC1=O)CCC=C(CO)CO`, for which the Activity in the data set on PC-12 worked out at 6.72%.
Same read-out and setting: the same measure for `C/C(=C\CCC1=C[C@@H](c2cc(O)ccc2O)OC1=O)CCC=C(CO)CO`: 6.19%.
Turning to `COC(=O)/C(=C\C(=O)c1cc(O)ccc1O)CC/C=C(\C)CCC=C(C)C`, the concentration for half-maximal inhibition (IC50) against Acetylcholinesterase was found to be 8.2 µM. For the same compound, in the data set on PC-12, the Activity is recorded as 10.95%.
Take `C/C(=C/CCC1=C[C@H](c2cc(O)ccc2O)OC1=O)CO`: the Activity in the data set with PC-12 stood at 11.67%.
Still for that read-out and setting: the same measure for `CC1(C)Oc2ccc(O)cc2C2=C1CCC(C(=O)O)=C2`: 4.89%.
